Measurements published in the NIST ThermoML archive (doi:10.1016/j.jct.2005.07.011).
Numbers after ± are expanded uncertainties.

Assay: excess molar enthalpy (molar enthalpy of mixing); xn = mol fraction of the nth substance listed
Settings: Liquid, Flow calorimetry

COC(=O)OC [dimethyl carbonate] + CCCCO
Settings	excess molar enthalpy [kcal/mol]
298.15 K, 1000 kPa, x1 = 0.05	0.127 ± 0.0043
298.15 K, 1000 kPa, x1 = 0.1	0.232 ± 0.0043
298.15 K, 1000 kPa, x1 = 0.15	0.317 ± 0.0043
298.15 K, 1000 kPa, x1 = 0.2	0.383 ± 0.00454
298.15 K, 1000 kPa, x1 = 0.25	0.435 ± 0.00454
298.15 K, 1000 kPa, x1 = 0.3	0.4733 ± 0.00454
298.15 K, 1000 kPa, x1 = 0.35	0.5011 ± 0.00478
298.15 K, 1000 kPa, x1 = 0.4	0.5163 ± 0.00478
298.15 K, 1000 kPa, x1 = 0.45	0.5253 ± 0.00454
298.15 K, 1000 kPa, x1 = 0.5	0.5258 ± 0.00454
298.15 K, 1000 kPa, x1 = 0.55	0.5155 ± 0.0043
298.15 K, 1000 kPa, x1 = 0.6	0.4945 ± 0.0043
298.15 K, 1000 kPa, x1 = 0.65	0.4683 ± 0.00406
298.15 K, 1000 kPa, x1 = 0.7	0.4353 ± 0.00359
298.15 K, 1000 kPa, x1 = 0.75	0.3916 ± 0.00335
298.15 K, 1000 kPa, x1 = 0.8	0.3364 ± 0.00287
298.15 K, 1000 kPa, x1 = 0.85	0.2695 ± 0.00229
298.15 K, 1000 kPa, x1 = 0.9	0.1907 ± 0.00167
298.15 K, 1000 kPa, x1 = 0.95	0.09904 ± 0.000956
313.15 K, 100 kPa, x1 = 0.049	0.125 ± 0.00454
313.15 K, 100 kPa, x1 = 0.099	0.235 ± 0.00454
313.15 K, 100 kPa, x1 = 0.149	0.329 ± 0.0043
313.15 K, 100 kPa, x1 = 0.199	0.404 ± 0.0043
313.15 K, 100 kPa, x1 = 0.25	0.4635 ± 0.0043
313.15 K, 100 kPa, x1 = 0.299	0.5061 ± 0.0043
313.15 K, 100 kPa, x1 = 0.351	0.5395 ± 0.00454
313.15 K, 100 kPa, x1 = 0.4	0.5598 ± 0.00454
313.15 K, 100 kPa, x1 = 0.449	0.5716 ± 0.00454
313.15 K, 100 kPa, x1 = 0.499	0.5732 ± 0.00454
313.15 K, 100 kPa, x1 = 0.549	0.5667 ± 0.00454
313.15 K, 100 kPa, x1 = 0.6	0.5459 ± 0.00454
313.15 K, 100 kPa, x1 = 0.651	0.5157 ± 0.0043
313.15 K, 100 kPa, x1 = 0.699	0.4762 ± 0.0043
313.15 K, 100 kPa, x1 = 0.751	0.427 ± 0.00406
313.15 K, 100 kPa, x1 = 0.8	0.368 ± 0.00406
313.15 K, 100 kPa, x1 = 0.85	0.299 ± 0.00406
313.15 K, 100 kPa, x1 = 0.899	0.204 ± 0.0043
313.15 K, 100 kPa, x1 = 0.949	0.108 ± 0.00406
313.15 K, 1000 kPa, x1 = 0.049	0.127 ± 0.00454
313.15 K, 1000 kPa, x1 = 0.099	0.238 ± 0.00454
313.15 K, 1000 kPa, x1 = 0.149	0.331 ± 0.0043
313.15 K, 1000 kPa, x1 = 0.199	0.406 ± 0.0043
313.15 K, 1000 kPa, x1 = 0.25	0.4659 ± 0.0043
313.15 K, 1000 kPa, x1 = 0.299	0.5082 ± 0.0043
313.15 K, 1000 kPa, x1 = 0.35	0.5426 ± 0.00454
313.15 K, 1000 kPa, x1 = 0.399	0.5625 ± 0.00454
313.15 K, 1000 kPa, x1 = 0.449	0.572 ± 0.00454
313.15 K, 1000 kPa, x1 = 0.499	0.5728 ± 0.00454
313.15 K, 1000 kPa, x1 = 0.549	0.5639 ± 0.00454
313.15 K, 1000 kPa, x1 = 0.6	0.5428 ± 0.00454
313.15 K, 1000 kPa, x1 = 0.651	0.5125 ± 0.0043
313.15 K, 1000 kPa, x1 = 0.699	0.4734 ± 0.0043
313.15 K, 1000 kPa, x1 = 0.751	0.4239 ± 0.00406
313.15 K, 1000 kPa, x1 = 0.8	0.368 ± 0.00406
313.15 K, 1000 kPa, x1 = 0.849	0.296 ± 0.00406
313.15 K, 1000 kPa, x1 = 0.899	0.206 ± 0.0043
313.15 K, 1000 kPa, x1 = 0.949	0.105 ± 0.00406
313.15 K, 10000 kPa, x1 = 0.049	0.124 ± 0.00454
313.15 K, 10000 kPa, x1 = 0.101	0.24 ± 0.00454
313.15 K, 10000 kPa, x1 = 0.151	0.332 ± 0.0043
313.15 K, 10000 kPa, x1 = 0.202	0.405 ± 0.0043
313.15 K, 10000 kPa, x1 = 0.249	0.4604 ± 0.0043
313.15 K, 10000 kPa, x1 = 0.3	0.5061 ± 0.0043
313.15 K, 10000 kPa, x1 = 0.349	0.5364 ± 0.00454
313.15 K, 10000 kPa, x1 = 0.401	0.5586 ± 0.00454
313.15 K, 10000 kPa, x1 = 0.451	0.5694 ± 0.00454
313.15 K, 10000 kPa, x1 = 0.501	0.5711 ± 0.00454
313.15 K, 10000 kPa, x1 = 0.551	0.5597 ± 0.00454
313.15 K, 10000 kPa, x1 = 0.602	0.5408 ± 0.00454
313.15 K, 10000 kPa, x1 = 0.65	0.513 ± 0.00454
313.15 K, 10000 kPa, x1 = 0.75	0.4247 ± 0.00406
313.15 K, 10000 kPa, x1 = 0.799	0.368 ± 0.00406
313.15 K, 10000 kPa, x1 = 0.849	0.293 ± 0.00406
313.15 K, 10000 kPa, x1 = 0.899	0.21 ± 0.0043
313.15 K, 10000 kPa, x1 = 0.949	0.105 ± 0.0043
328.15 K, 1000 kPa, x1 = 0.05	0.129 ± 0.00478
328.15 K, 1000 kPa, x1 = 0.1	0.243 ± 0.00478
328.15 K, 1000 kPa, x1 = 0.15	0.341 ± 0.00454
328.15 K, 1000 kPa, x1 = 0.2	0.418 ± 0.00478
328.15 K, 1000 kPa, x1 = 0.25	0.4826 ± 0.00478
328.15 K, 1000 kPa, x1 = 0.3	0.531 ± 0.00502
328.15 K, 1000 kPa, x1 = 0.35	0.5685 ± 0.00502
328.15 K, 1000 kPa, x1 = 0.4	0.5957 ± 0.00526
328.15 K, 1000 kPa, x1 = 0.45	0.6082 ± 0.00526
328.15 K, 1000 kPa, x1 = 0.5	0.6094 ± 0.00526
328.15 K, 1000 kPa, x1 = 0.55	0.602 ± 0.00502
328.15 K, 1000 kPa, x1 = 0.6	0.5832 ± 0.00478
328.15 K, 1000 kPa, x1 = 0.65	0.5542 ± 0.00454
328.15 K, 1000 kPa, x1 = 0.7	0.513 ± 0.0043
328.15 K, 1000 kPa, x1 = 0.75	0.4578 ± 0.00382
328.15 K, 1000 kPa, x1 = 0.8	0.3918 ± 0.00335
328.15 K, 1000 kPa, x1 = 0.85	0.3191 ± 0.00263
328.15 K, 1000 kPa, x1 = 0.9	0.2231 ± 0.00191
328.15 K, 1000 kPa, x1 = 0.95	0.114 ± 0.0011
